# In article PMC6715447 (Science (New York, N.Y.), 2019):
# Target: T1, cysteamine (2-aminoethanethiol) dioxygenase (ADO) (Homo sapiens, UniProt Q96SZ5)
# T1 sequence (Q96SZ5 1-270): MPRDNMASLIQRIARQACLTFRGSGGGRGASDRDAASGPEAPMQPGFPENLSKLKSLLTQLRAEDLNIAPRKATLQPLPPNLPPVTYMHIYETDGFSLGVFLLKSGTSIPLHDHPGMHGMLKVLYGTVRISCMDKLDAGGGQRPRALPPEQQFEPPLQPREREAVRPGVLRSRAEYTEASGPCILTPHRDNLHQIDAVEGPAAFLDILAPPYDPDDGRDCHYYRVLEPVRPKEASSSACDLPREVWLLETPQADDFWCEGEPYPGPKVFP
# Assay: competition of N-Cys peptide dioxygenation by recombinant ADO
# Format: biochemical
row,IC50 [mM],SMILES
1,37,NCCS [cysteamine]
2,13,N[C@@H](CS)C(=O)O [cysteine]
